For one assay, the target named is α1-AR. Description: radioligand binding, displacement of [3H]prazosin from α1-adrenoreceptors. Particulars: rat cerebral cortex, ± SEM. Here is the method: The brains were homogenized in 20 volumes of ice-cold 50 mM Tris–HCl buffer (pH 7.6) and centrifuged at 20,000 × g for 20 min (0–4 °C). The cell pellet was resuspended in the Tris–HCl buffer and centrifuged again. Radioligand binding assays were performed in plates (MultiScreen/Millipore). […] The incubation was terminated by rapid filtration over glass fibre filters (Whatman GF/C) using a vacuum manifold (Millipore). The filters were then washed twice with the assay buffer and placed in scintillation vials with a liquid scintillation cocktail. Radioactivity was measured in a WALLAC 1409 DSA liquid scintillation counter. All assays were made in duplicate.

A further assay deals with T1, human 5-HT1A receptor (Homo sapiens, UniProt P08908).
T1 construct: expressed in transfected cells; host or cells: HEK293
T1 sequence (P08908 1-422): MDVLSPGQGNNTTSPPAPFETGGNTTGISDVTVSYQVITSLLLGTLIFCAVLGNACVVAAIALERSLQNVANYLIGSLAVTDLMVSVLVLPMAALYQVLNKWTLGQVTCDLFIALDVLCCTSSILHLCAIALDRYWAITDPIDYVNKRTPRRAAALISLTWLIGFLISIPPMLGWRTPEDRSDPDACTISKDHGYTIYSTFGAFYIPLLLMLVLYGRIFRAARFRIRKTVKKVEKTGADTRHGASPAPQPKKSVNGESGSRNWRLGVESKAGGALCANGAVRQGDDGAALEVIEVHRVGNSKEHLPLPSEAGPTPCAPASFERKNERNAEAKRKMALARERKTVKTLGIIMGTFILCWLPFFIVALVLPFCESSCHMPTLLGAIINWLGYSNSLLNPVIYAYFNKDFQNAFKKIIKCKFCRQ
Kind of assay: radioligand binding, [3H]-8-OH-DPAT displacement at 5-HT1AR in HEK293 cells. Particulars: HEK-293 cells, ± SEM. Here is the method: (§1) All experiments were performed using HEK293 cells stably expressing human 5-HT1A, 5-HT6, 5-HT7b, and D2L receptors or CHO-K1 cells with a plasmid containing the human 5-HT2A receptor coding sequence (PerkinElmer, Waltham, MA, USA), according to previously reported procedures. Cells were cultured in 150 cm^2 flasks and, after reaching a 90% confluence, were washed with PBS and the centrifugated (200 g) in PBS containing 0.1 mM EDTA and 1 mM dithiothreitol. Cell pellets were subsequently homogenized (in Ultra Turrax tissue homogenizer) and centrifugated twice (35,000× g for 15 min at 4 °C), with 15 min incubation at 37 °C between the centrifugations. All assays were incubated in dedicated buffers and in a total volume of 200 µL in 96-well microtitre plates for 1 h at 37 °C, except for 5-HT1AR and 5-HT2AR that was incubated for 1 h at room temperature. The process of equilibration is terminated by rapid filtration through Unifilter-96 (PerkinElmer) plates with a 96-well cell harvester and radioactivity retained on the filters was quantified on a Microbeta plate reader (PerkinElmer, USA). For displacement studies, the following assay samples containing the proper radioligand were used: 2.5 nM [^3H]-8-OH-DPAT (PerkinElmer, #NET929001MC) for 5-HT1AR; 1 nM [^3H]-ketanserin (PerkinElmer, #NET791250UC) for 5-HT2AR; 2 nM [^3H]-LSD (PerkinElmer, #NET638250UC) for 5-HT6R; and 0.8 nM [^3H]-5-CT (PerkinElmer, #NET1188U100UC) for 5-HT7R or 2.5 nM [^3H]-raclopride (PerkinElmer, #NET975001MC) for D2LR. Non-specific binding was determined using 10 μM 5-HT for 5-HT1AR and 5-HT7R, 20 μM mianserin for 5-HT2AR, 10 μM methiothepine for 5-HT6R, and 10 μM haloperidol for D2LR. […] Results were expressed as means of at least three separate experiments.

The target of the next assay is T2, human 5-HT2A receptor (Homo sapiens, UniProt P28223).
T2 construct: host or cells: CHO-K1
Description: radioligand binding, [3H]-ketanserin displacement at 5-HT2AR in CHO-K1 cells. The conditions noted are these: ± SEM; footnote HEK-293 cells, method CHO-K1 cells. The procedure: as §1

The target of another assay is T3, α2A-adrenergic receptor (Homo sapiens, UniProt P08913).
T3 construct: host or cells: U2OS (Tango ADRA2A-bla U2OS DA)
T3 sequence (P08913 1-465): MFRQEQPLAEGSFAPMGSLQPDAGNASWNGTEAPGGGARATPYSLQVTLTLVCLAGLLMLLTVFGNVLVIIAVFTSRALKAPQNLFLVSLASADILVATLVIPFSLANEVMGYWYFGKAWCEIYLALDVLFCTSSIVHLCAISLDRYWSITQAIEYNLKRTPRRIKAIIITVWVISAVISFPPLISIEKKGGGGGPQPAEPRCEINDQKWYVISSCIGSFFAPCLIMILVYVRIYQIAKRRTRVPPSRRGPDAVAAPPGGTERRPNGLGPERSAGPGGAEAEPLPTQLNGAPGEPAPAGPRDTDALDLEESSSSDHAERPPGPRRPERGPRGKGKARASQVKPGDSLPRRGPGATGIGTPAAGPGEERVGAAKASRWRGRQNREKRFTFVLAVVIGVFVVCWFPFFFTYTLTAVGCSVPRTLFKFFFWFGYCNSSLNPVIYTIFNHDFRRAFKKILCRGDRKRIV
Description: intrinsic activity (antagonist) assay, Tango ADRA2A-bla U2OS DA cells, FRET. In kind it is cell-based. Particulars: for Kb: antagonist, ADRA2A-bla U2OS DA cells, ± SEM, two independent experiments; for functional selectivity for α2A-AR over α2B-AR subtype: from Kb values α2A vs α2B. The procedure: Intrinsic activity assays for α2A-adrenergic receptor were performed according to the instructions of the manufacturer of the assay kit containing the ready to use cells with stable expression of the α2A-adrenoceptor (Invitrogen, Life Technologies, Waltham, MA, USA). Tango™ ADRA2A-bla U2OS DA cells (10,000 cells/well) were plated in a 384-well format and incubated for 20 h. […] Cells were then loaded with LiveBLAzer™-FRET B/G substrate for 2 h.

A further assay has as its system Albino Swiss mice. Description: forced swim test. The class given is in vivo. Particulars: ip; for shortening of immobility in FST in comparison to control: dose range 1–8 mg/kg; for shortening of immobility in FST in comparison to control / active dose in FST (antidepressant-like effect): 30 min before test. The procedure:
Adult male Albino Swiss mice (CD-1, 8 weeks old, 25–30 g: Jagiellonian University Medical College, Krakow, Poland) were used in the study. Animals were housed in groups of 8 in a transparent plastic cage (382 × 220 × 150 mm) at room temperature (22 ± 2 °C), on a 12 h light/dark cycle with ad libitum access to food and water. Mice were handled for one week before starting the experimental procedures. The separate groups of animals were used in the forced swim test and in the locomotor studies. All studies were approved by the Institutional Animal Care and Ethics Committee of the Jagiellonian University (approval no.: 80/2015). […] Tested compounds were dissolved with 1% Tween 80. […] The control animals were given ip injections of the 2% DMSO in 1% Tween 80 (vehicle). The volume of vehicle or drug solutions was 10 mL/kg. The experiment was performed on mice according to the method previously described. Mice were forced to swim individually in the glass cylinders (height 25 cm, diameter 10 cm) filled with water at 24 ± 1 °C to a depth of 10 cm and left there for 6 min. Following a 2 min habituation period, total time spent immobile was recorded over the next 4 min. The animal was regarded as immobile when it remained floating passively in the water, making only small movements to keep its head above the water.

T2 sequence (P28223 whole entry): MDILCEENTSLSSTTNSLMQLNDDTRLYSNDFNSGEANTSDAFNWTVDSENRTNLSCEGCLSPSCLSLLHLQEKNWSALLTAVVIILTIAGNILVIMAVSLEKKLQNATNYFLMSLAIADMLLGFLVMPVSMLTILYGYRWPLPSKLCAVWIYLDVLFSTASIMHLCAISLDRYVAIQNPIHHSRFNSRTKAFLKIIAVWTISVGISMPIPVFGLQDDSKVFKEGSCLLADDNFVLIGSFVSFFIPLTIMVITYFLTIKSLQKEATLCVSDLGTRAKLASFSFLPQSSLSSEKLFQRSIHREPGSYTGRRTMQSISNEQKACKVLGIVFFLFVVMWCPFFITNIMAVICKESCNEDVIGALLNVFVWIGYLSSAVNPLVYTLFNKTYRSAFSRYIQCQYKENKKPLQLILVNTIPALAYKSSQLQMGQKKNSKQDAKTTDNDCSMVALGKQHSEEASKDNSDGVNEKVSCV

As a reminder, the Ki is a measure of affinity in units of concentration, obtained from inhibition or displacement. A lower Ki goes with a stronger hold on the target. The Kb is the affinity of an antagonist, worked out from how it opposes an agonist. Low values mean a more potent antagonist, high ones a less potent antagonist. As to `CC1(C)Cc2cccc(OCCN3CCC(NS(=O)(=O)c4ccc(F)cc4)CC3)c2O1` [Compound 6, 4-Fluoro-N-{1-[2-(2,2-dimethyl-2,3-dihydrobenzofuran-7-yloxy)ethyl]piperidin-4-yl} benzenesulfonamide], affinity on α1-AR was put at a Ki of 761 ± 86 nM. The molecule also showed a Ki at human 5-HT1A receptor of 221 ± 25 nM. At human 5-HT2A receptor, the Ki stood at 538 ± 38 nM. On α2A-adrenergic receptor, the Kb amounted to 12 ± 4 nM and the “functional selectivity for α2A-AR over α2B-AR subtype” value (“functional selectivity for α2A-AR” for short) was “up to seven”. In the assay with Albino Swiss mice, the “shortening of immobility in FST in comparison to control” value (from here on “shortening of immobility in FST”) was “about 25%” and the “active dose in FST (antidepressant-like effect)” value (from here on “active dose in FST”) came to 8 mg/kg.
Turning to `CC1(C)Cc2cccc(OCCN3CCC(NS(=O)(=O)c4cc(Cl)ccc4F)CC3)c2O1` [Compound 8, 5-Chloro-2-fluoro-N-{1-[2-(2,2-dimethyl-2,3-dihydrobenzofuran-7-yloxy)ethyl]piperidin-4-yl}benzenesulfonamide], the Ki at α1-AR was determined as 1260 ± 101 nM; at human 5-HT1A receptor it was 260 ± 29 nM; at human 5-HT2A receptor, 1420 ± 98 nM. This molecule returned a Kb on α2A-adrenergic receptor of 40 ± 11 nM. In addition, the “functional selectivity for α2A-AR” value on α2A-adrenergic receptor was “four”. The “shortening of immobility in FST” value in the assay with Albino Swiss mice was “about 25%”. Moreover, in the assay on Albino Swiss mice, the “active dose in FST” value amounted to 4 mg/kg.
Consider `CC1(C)Cc2cccc(OCCN3CCC(NS(=O)(=O)c4cncc5ccccc45)CC3)c2O1` [Compound 13, 4-Isoquinoline-N-{1-[2-(2,2-dimethyl-2,3-dihydrobenzofuran-7-yloxy)ethyl]piperidin-4-yl}sulfonamide], for which the values for the Ki at α1-AR, on human 5-HT1A receptor and at human 5-HT2A receptor were 429 ± 66 nM, 260 ± 18 nM and 1420 ± 105 nM, respectively. At α2A-adrenergic receptor, this molecule registered a Kb of 31 ± 8 nM. Besides, the “functional selectivity for α2A-AR” value on α2A-adrenergic receptor is given as “did not show any preference”. Further, in the assay on Albino Swiss mice, the “shortening of immobility in FST” value was “about 25%”. For the same molecule, the “active dose in FST” value with Albino Swiss mice came out at 1 mg/kg. Further, the “effect in the FST” value in the assay with Albino Swiss mice (doses of 4 and 8 mg/kg) is “lack of pharmacological effect”.
